From ChEMBL document CHEMBL1201862, “PubChem BioAssay data set” (2004) come the findings set out here.

Among the test systems are ACHN; BT-549; EKVX; HCT-116; HCT-15; HL-60; IGROV-1; KM12; Malme-3M; NCI-H23; NCI-H460; NCI-H522; NCI/ADR-RES; OVCAR-4; SK-MEL-5; SNB-75; SW-620; TK-10; UACC-62; MCF7.
What all share (test): NCI tumour cell line growth inhibition, 48 h

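Briefly, cells in 96-well plates were exposed to five compound concentrations for 48 h, and endpoints were estimated by linear interpolation. GI50 marks 50% less growth.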 The source made the active and inactive calls. Cut-off read from the data, not from the text of the source: active = GI50 up to about 1.1 µM and inactive = higher.

Turning to `CO[C@@H](c1ccccc1)[C@H](O)[C@](O)(c1ccccc1)P(=O)(OC)OC`, the GI50 was > 100 µM (inactive) with ACHN; 47.6 µM (inactive) with BT-549; > 100 µM (inactive) in the assay with EKVX; > 100 µM (inactive) in the assay on HCT-116; above 100 µM in the assay with HCT-15; > 100 µM (inactive) in the assay on HL-60. Besides, the GI50 with IGROV-1, in the assay on KM12, with Malme-3M, in the assay on NCI-H23, in the assay with NCI-H460 and in the assay on NCI-H522 was > 100 µM (inactive) each time. In addition, the GI50 in the assay with NCI/ADR-RES, in the assay on OVCAR-4, in the assay with SK-MEL-5, in the assay on SNB-75, in the assay with SW-620 and with TK-10 was > 100 µM (inactive) in each case. Moreover, in the assay on UACC-62, the GI50 is > 100 µM (inactive).
For `O=[N+]([O-])/C(C(Cl)=C(Cl)Cl)=C(\NCc1ccccc1)Sc1ccccc1`, the GI50 in the assay on ACHN is 35.7 µM (inactive); with BT-549 it was 17.3 µM (inactive); with EKVX, 38.4 µM (inactive); in the assay on HCT-116 it was 32.4 µM (inactive); in the assay with HCT-15, 17.3 µM; with KM12 it was 16.5 µM (inactive). Also, the GI50 was 32.4 µM (inactive) in the assay on MCF7; 16.8 µM (inactive) in the assay with Malme-3M; 20.5 µM (inactive) with NCI-H23; 37 µM (inactive) in the assay on NCI-H460; 24.5 µM (inactive) in the assay with NCI/ADR-RES; 28.6 µM (inactive) with OVCAR-4. The values for the GI50 in the assay with SNB-75, in the assay with SW-620 and in the assay on UACC-62 were 28.2 µM (inactive), 18.4 µM (inactive) and 30.4 µM (inactive), respectively.
Turning to `N#CCCN(CCC#N)c1ccc(/C=C2\N=C(c3ccccc3)N(c3ccc(F)cc3)C2=O)cc1`, the GI50 with ACHN was > 100 µM (inactive); with BT-549, > 100 µM (inactive); in the assay on EKVX, > 100 µM (inactive); with HCT-116, > 100 µM (inactive); in the assay with HCT-15, above 100 µM; with IGROV-1, > 100 µM (inactive). The GI50 with KM12, in the assay on MCF7, with Malme-3M, in the assay on NCI-H460, with NCI/ADR-RES and in the assay with OVCAR-4 was > 100 µM (inactive) in each case. For the same compound, the GI50 with SK-MEL-5, with SNB-75, with SW-620, with TK-10 and in the assay with UACC-62 was > 100 µM (inactive) each time.
For `CN(N)c1cc(=O)[nH]c(=O)[nH]1`, the GI50 is > 100 µM (inactive) in the assay on ACHN; 0.03 µM (active) with BT-549; > 100 µM (inactive) in the assay on EKVX; > 100 µM (inactive) in the assay with HCT-116; above 100 µM with HCT-15; 43.4 µM (inactive) in the assay with HL-60. In addition, the GI50 with IGROV-1, in the assay with KM12, in the assay with Malme-3M, in the assay with NCI-H23, in the assay on NCI-H460 and in the assay with NCI-H522 was > 100 µM (inactive) each time. Besides, the GI50 in the assay with NCI/ADR-RES, with OVCAR-4, in the assay on SK-MEL-5, in the assay with SW-620, in the assay on TK-10 and with UACC-62 was > 100 µM (inactive) throughout.
On to `Cc1ccc2nc(NC(=O)/C(Cc3nc4ccc(Cl)cc4nc3O)=N\NC(C)(C)C)sc2c1`, for which the GI50 in the assay with ACHN is > 100 µM (inactive); in the assay on BT-549 it was > 100 µM (inactive); in the assay on HCT-116 it was > 100 µM (inactive); with HCT-15 it was 90.6 µM; with HL-60, > 100 µM (inactive); in the assay with KM12, > 100 µM (inactive). In addition, the GI50 in the assay on MCF7 was > 100 µM (inactive); in the assay on NCI-H23 it was > 100 µM (inactive); in the assay on NCI-H460, > 100 µM (inactive); in the assay with NCI/ADR-RES, > 100 µM (inactive); with OVCAR-4 it was 12.5 µM (inactive); in the assay on SK-MEL-5 it was > 10 µM (inactive). Further, the values for the GI50 with SNB-75, in the assay on SW-620 and with UACC-62 were 15.5 µM (inactive), > 100 µM (inactive) and > 100 µM (inactive), respectively.
